Measurements published in patent US8410161B2, “Thioxanthone ring system derivatives” (National Defense Medical Center, priority 2010, dated 2013).

How the values were obtained:
RPMI-8226 = assay: NCI in vitro DTP human cell line screen, RPMI-8226; assay type: cell-based; conditions: Leukemia, 1.00E−5 Molar
Description: (§1) Then, a cell toxicity assay of the cancer lines made by National Cancer Institute will be discussed as follows. The cell toxicity assay is performed by choosing ten compounds (existing certification numbers) from the 59 compounds disclosed in the present invention first.

LOX IMVI = assay: NCI in vitro DTP human cell line screen, LOX IMVI; assay type: cell-based; conditions: Melanoma, 1.00E−5 Molar
Description: as §1

MCF7 = assay: NCI in vitro DTP human cell line screen, MCF7; assay type: cell-based; conditions: Breast Cancer, 1.00E−5 Molar
Description: as §1

MALME-3M = assay: NCI in vitro DTP human cell line screen, MALME-3M; assay type: cell-based; conditions: Melanoma, 1.00E−5 Molar
Description: as §1

IGROV1 = assay: NCI in vitro DTP human cell line screen, IGROV1; assay type: cell-based; conditions: Ovarian Cancer, 1.00E−5 Molar
Description: as §1

786-0 = assay: NCI in vitro DTP human cell line screen, 786-0; assay type: cell-based; conditions: Renal Cancer, 1.00E−5 Molar
Description: as §1

MDA-MB-468 = assay: NCI in vitro DTP human cell line screen, MDA-MB-468; assay type: cell-based; conditions: Breast Cancer, 1.00E−5 Molar
Description: as §1

CCRF-CEM = assay: NCI in vitro DTP human cell line screen, CCRF-CEM; assay type: cell-based; conditions: Leukemia, 1.00E−5 Molar
Description: as §1

K562 = assay: NCI in vitro DTP human cell line screen, K562; assay type: cell-based; conditions: Leukemia, 1.00E−5 Molar
Description: as §1

HS 578-T = assay: NCI in vitro DTP human cell line screen, HS 578-T; assay type: cell-based; conditions: Breast Cancer, 1.00E−5 Molar
Description: as §1

U251 = assay: NCI in vitro DTP human cell line screen, U251; assay type: cell-based; conditions: CNS Cancer, 1.00E−5 Molar
Description: as §1

HL-60(TB) = assay: NCI in vitro DTP human cell line screen, HL-60(TB); assay type: cell-based; conditions: Leukemia, 1.00E−5 Molar
Description: as §1

COLO 205 = assay: NCI in vitro DTP human cell line screen, COLO 205; assay type: cell-based; conditions: Colon Cancer, 1.00E−5 Molar
Description: as §1

NCI-H460 = assay: NCI in vitro DTP human cell line screen, NCI-H460; assay type: cell-based; conditions: Non-Small Cell Lung Cancer, 1.00E−5 Molar
Description: as §1

HCC-2998 = assay: NCI in vitro DTP human cell line screen, HCC-2998; assay type: cell-based; conditions: Colon Cancer, 1.00E−5 Molar
Description: as §1

BT-549 = assay: NCI in vitro DTP human cell line screen, BT-549; assay type: cell-based; conditions: Breast Cancer, 1.00E−5 Molar
Description: as §1

KM12 = assay: NCI in vitro DTP human cell line screen, KM12; assay type: cell-based; conditions: Colon Cancer, 1.00E−5 Molar
Description: as §1

SN12C = assay: NCI in vitro DTP human cell line screen, SN12C; assay type: cell-based; conditions: Renal Cancer, 1.00E−5 Molar
Description: as §1

CAKI-1 = assay: NCI in vitro DTP human cell line screen, CAKI-1; assay type: cell-based; conditions: Renal Cancer, 1.00E−5 Molar
Description: as §1

ACHN = assay: NCI in vitro DTP human cell line screen, ACHN; assay type: cell-based; conditions: Renal Cancer, 1.00E−5 Molar
Description: as §1

T-47D = assay: NCI in vitro DTP human cell line screen, T-47D; assay type: cell-based; conditions: Breast Cancer, 1.00E−5 Molar
Description: as §1

OVCAR-3 = assay: NCI in vitro DTP human cell line screen, OVCAR-3; assay type: cell-based; conditions: Ovarian Cancer, 1.00E−5 Molar
Description: as §1

NCI-H322M = assay: NCI in vitro DTP human cell line screen, NCI-H322M; assay type: cell-based; conditions: Non-Small Cell Lung Cancer, 1.00E−5 Molar
Description: as §1

NCI-H226 = assay: NCI in vitro DTP human cell line screen, NCI-H226; assay type: cell-based; conditions: Non-Small Cell Lung Cancer, 1.00E−5 Molar
Description: as §1

HCT-15 = assay: NCI in vitro DTP human cell line screen, HCT-15; assay type: cell-based; conditions: Colon Cancer, 1.00E−5 Molar
Description: as §1

OVCAR-4 = assay: NCI in vitro DTP human cell line screen, OVCAR-4; assay type: cell-based; conditions: Ovarian Cancer, 1.00E−5 Molar
Description: as §1

NCI/ADR-RES = assay: NCI in vitro DTP human cell line screen, NCI/ADR-RES; assay type: cell-based; conditions: Ovarian Cancer, 1.00E−5 Molar
Description: as §1

NCI-H23 = assay: NCI in vitro DTP human cell line screen, NCI-H23; assay type: cell-based; conditions: Non-Small Cell Lung Cancer, 1.00E−5 Molar
Description: as §1

TK-10 = assay: NCI in vitro DTP human cell line screen, TK-10; assay type: cell-based; conditions: Renal Cancer, 1.00E−5 Molar
Description: as §1

UO-31 = assay: NCI in vitro DTP human cell line screen, UO-31; assay type: cell-based; conditions: Renal Cancer, 1.00E−5 Molar
Description: as §1

60 cancer lines = assay: NCI cell toxicity assay of 60 cancer lines, whole panel summary; assay type: cell-based, human; conditions: 1.00E−5 Molar
Description: as §1

OVCAR-5 = assay: NCI in vitro DTP human cell line screen, OVCAR-5; assay type: cell-based; conditions: Ovarian Cancer, 1.00E−5 Molar
Description: as §1

SK-MEL-28 = assay: NCI in vitro DTP human cell line screen, SK-MEL-28; assay type: cell-based; conditions: Melanoma, 1.00E−5 Molar
Description: as §1

HT29 = assay: NCI in vitro DTP human cell line screen, HT29; assay type: cell-based; conditions: Colon Cancer, 1.00E−5 Molar
Description: as §1

DU145 = assay: NCI in vitro DTP human cell line screen, DU145; assay type: cell-based; conditions: Prostate Cancer, 1.00E−5 Molar
Description: as §1

UACC-62 = assay: NCI in vitro DTP human cell line screen, UACC-62; assay type: cell-based; conditions: Melanoma, 1.00E−5 Molar
Description: as §1

A control cell lines = assay: MTT assay, A control cell lines (lung cancer cell); assay type: cell-based
Excerpt: Please refer to Table 1 and FIGS. 4A-4C. According to a MTT assay (Table 1), various cell viabilities of the A control cell lines can be obtained and illustrated in FIG. 4A while the compounds No. 2˜30 are used to treat A control cell lines, wherein A control cell lines are lung cancer cell.

SR = assay: NCI in vitro DTP human cell line screen, SR; assay type: cell-based; conditions: Leukemia, 1.00E−5 Molar
Description: as §1

A3 cell lines = assay: MTT assay, A3 cell lines (lung cancer stem cell); assay type: cell-based
Excerpt: Please to FIG. 4B, various cell viabilities of the A3 cell lines can be obtained through the MTT assay and illustrated in FIG. 4B while the compounds No. 1˜30 are used to treat A3 cell lines, wherein A3 cell lines are lung cancer stem cell.

MDA-MB-231/ATCC = assay: NCI in vitro DTP human cell line screen, MDA-MB-231/ATCC; assay type: cell-based; conditions: Breast Cancer, 1.00E−5 Molar
Description: as §1

SK-OV-3 = assay: NCI in vitro DTP human cell line screen, SK-OV-3; assay type: cell-based; conditions: Ovarian Cancer, 1.00E−5 Molar
Description: as §1

RXF 393 = assay: NCI in vitro DTP human cell line screen, RXF 393; assay type: cell-based; conditions: Renal Cancer, 1.00E−5 Molar
Description: as §1

SF-268 = assay: NCI in vitro DTP human cell line screen, SF-268; assay type: cell-based; conditions: CNS Cancer, 1.00E−5 Molar
Description: as §1

PC-3 = assay: NCI in vitro DTP human cell line screen, PC-3; assay type: cell-based; conditions: Prostate Cancer, 1.00E−5 Molar
Description: as §1

SW-620 = assay: NCI in vitro DTP human cell line screen, SW-620; assay type: cell-based; conditions: Colon Cancer, 1.00E−5 Molar
Description: as §1

MDA-MB-435 = assay: NCI in vitro DTP human cell line screen, MDA-MB-435; assay type: cell-based; conditions: Melanoma, 1.00E−5 Molar
Description: as §1

HCT-116 = assay: NCI in vitro DTP human cell line screen, HCT-116; assay type: cell-based; conditions: Colon Cancer, 1.00E−5 Molar
Description: as §1

MOLT-4 = assay: NCI in vitro DTP human cell line screen, MOLT-4; assay type: cell-based; conditions: Leukemia, 1.00E−5 Molar
Description: as §1

[1] = MTT assay, HEL299 fibroblast; assay type: cell-based; conditions: human
Excerpt: Please refer to FIG. 4C, various cell viabilities of the HEL299 cell lines can be obtained through the MTT assay while the compounds No. 1˜30 are used to treat HEL299 cell lines, wherein HEL299 cell lines are fibroblast.

EKVX = assay: NCI in vitro DTP human cell line screen, EKVX; assay type: cell-based; conditions: Non-Small Cell Lung Cancer, 1.00E−5 Molar
Description: as §1

SK-MEL-5 = assay: NCI in vitro DTP human cell line screen, SK-MEL-5; assay type: cell-based; conditions: Melanoma, 1.00E−5 Molar
Description: as §1

M14 = assay: NCI in vitro DTP human cell line screen, M14; assay type: cell-based; conditions: Melanoma, 1.00E−5 Molar
Description: as §1

NCI-H522 = assay: NCI in vitro DTP human cell line screen, NCI-H522; assay type: cell-based; conditions: Non-Small Cell Lung Cancer, 1.00E−5 Molar
Description: as §1

OVCAR-8 = assay: NCI in vitro DTP human cell line screen, OVCAR-8; assay type: cell-based; conditions: Ovarian Cancer, 1.00E−5 Molar
Description: as §1

SNB-19 = assay: NCI in vitro DTP human cell line screen, SNB-19; assay type: cell-based; conditions: CNS Cancer, 1.00E−5 Molar
Description: as §1

SF-295 = assay: NCI in vitro DTP human cell line screen, SF-295; assay type: cell-based; conditions: CNS Cancer, 1.00E−5 Molar
Description: as §1

UACC-257 = assay: NCI in vitro DTP human cell line screen, UACC-257; assay type: cell-based; conditions: Melanoma, 1.00E−5 Molar
Description: as §1

SK-MEL-2 = assay: NCI in vitro DTP human cell line screen, SK-MEL-2; assay type: cell-based; conditions: Melanoma, 1.00E−5 Molar
Description: as §1

SF-539 = assay: NCI in vitro DTP human cell line screen, SF-539; assay type: cell-based; conditions: CNS Cancer, 1.00E−5 Molar
Description: as §1

HOP-92 = assay: NCI in vitro DTP human cell line screen, HOP-92; assay type: cell-based; conditions: Non-Small Cell Lung Cancer, 1.00E−5 Molar
Description: as §1

SNB-75 = assay: NCI in vitro DTP human cell line screen, SNB-75; assay type: cell-based; conditions: CNS Cancer, 1.00E−5 Molar
Description: as §1

O=c1c2ccccc2sc2c(Cl)c(Sc3ccc(Cl)cc3)ccc12 [No. 29, 4-Chloro-3-(4-chlorophenylthio)-9H-thioxanthen-9-one]
Growth Percent (RPMI-8226): 88.56%
Growth Percent (LOX IMVI): 63.24%
Growth Percent (MCF7): 83.90%
Growth Percent (MALME-3M): 76.90%
Growth Percent (IGROV1): 53.39%
Growth Percent (786-0): 84.66%
Growth Percent (MDA-MB-468): 87.73%
Growth Percent (CCRF-CEM): 67.42%
Growth Percent (K562): 96.64%
Growth Percent (HS 578-T): 102.79%
Growth Percent (U251): 47.77%
Growth Percent (HL-60(TB)): 105.61%
Growth Percent (COLO 205): 87.02%
Growth Percent (NCI-H460): 40.25%
Growth Percent (HCC-2998): 98.92%
Growth Percent (BT-549): 87.92%
Growth Percent (KM12): 73.79%
Growth Percent (SN12C): 70.19%
Growth Percent (CAKI-1): 48.21%
Growth Percent (ACHN): 39.55%
Growth Percent (T-47D): 85.63%
Growth Percent (OVCAR-3): 90.37%
Growth Percent (NCI-H322M): 56.53%
Growth Percent (NCI-H226): 81.05%
Growth Percent (HCT-15): 85.15%
Growth Percent (OVCAR-4): 31.58%
Growth Percent (NCI/ADR-RES): 81.27%
Growth Percent (NCI-H23): 83.03%
Growth Percent (TK-10): 88.86%
Growth Percent (UO-31): 69.61%
Growth Percent, Mean (60 cancer lines; mean over all cell lines): 78.44%
cancer types with the better inhibition effect (in words) (60 cancer lines; summary of Table 3): better inhibition effect on Leukemia, non-small cell lung cancer, colorectal cancer, central nervous system cancer, ovarian cancer and kidney cancer
Growth Percent (OVCAR-5): 107.36%
Growth Percent (SK-MEL-28): 114.93%
Growth Percent (HT29): 86.36%
Growth Percent (DU145): 108.68%
Growth Percent (UACC-62): 82.23%
cell viabilities of A control cell lines (MTT assay) (A control cell lines): 70.1 ± 2.68%
Growth Percent (SR): 51.19%
cell viabilities of A3 cell lines (MTT assay) (A3 cell lines): 70.3 ± 5.31%
Growth Percent (MDA-MB-231/ATCC): 77.55%
Growth Percent (SK-OV-3): 73.85%
Growth Percent (RXF 393): 97.81%
Growth Percent (SF-268): 81.14%
Growth Percent (PC-3): 77.10%
Growth Percent (SW-620): 75.00%
Growth Percent (MDA-MB-435): 85.11%
Growth Percent (HCT-116): 54.33%
Growth Percent (MOLT-4): 94.77%
viability [1]: 74.5 ± 9.39%
Growth Percent (EKVX): 73.14%
Growth Percent (SK-MEL-5): 88.35%
Growth Percent (M14): 89.62%
Growth Percent (NCI-H522): 80.48%
Growth Percent (OVCAR-8): 64.49%
Growth Percent (SNB-19): 74.97%
Growth Percent (SF-295): 57.86%
Growth Percent (UACC-257): 99.23%
Growth Percent (SK-MEL-2): 105.36%
Growth Percent (SF-539): 86.15%
Growth Percent (HOP-92): 49.52%
Growth Percent (SNB-75): 76.16%
